Assay results reported in patent US20080248511A1, “METHODS TO QUENCH LIGHT FROM OPTICAL REACTIONS” (priority 2007, published 2008).

Tests used:
Renilla luciferase [1] = target: T1, Renilla luciferase (Renilla reniformis, UniProt P27652); assay: Detergent screen with Tergitol NP-9, Renilla luciferase (Example 3); type: biochemical; conditions: 0.5% Tergitol NP-9; for Retained Renilla Luminescence (%): 0.06% quencher in reagent solution; for Selectivity Value: retained firefly / retained Renilla, 0.06% quencher
T1 sequence (P27652 1-311): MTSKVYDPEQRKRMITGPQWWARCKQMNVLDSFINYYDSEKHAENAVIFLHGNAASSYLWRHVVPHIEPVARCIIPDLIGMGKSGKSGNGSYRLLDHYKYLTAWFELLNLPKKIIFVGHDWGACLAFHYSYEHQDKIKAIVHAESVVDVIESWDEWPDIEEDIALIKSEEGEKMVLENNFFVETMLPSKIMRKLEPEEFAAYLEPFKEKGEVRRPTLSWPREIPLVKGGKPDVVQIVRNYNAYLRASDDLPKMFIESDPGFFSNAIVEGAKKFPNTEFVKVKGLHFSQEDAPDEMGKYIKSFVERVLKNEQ
Experimental: (§1) Unless otherwise specified, materials were obtained from Sigma-Aldrich.
(§2) The firefly luciferase and Renilla luciferase enzymes were diluted as follows. Firefly luciferase was diluted to 14 ng/ml in Delbecco's Minimal Essential (DMEM) medium (Gibco/Invitrogen) containing 0.1% Prionex®. Renilla luciferase was diluted to 10 ng/ml in DMEM medium containing 0.1% Prionex®.
(§3) The luciferase reactions were initiated by adding 50 μl of the firefly luciferase or Renilla luciferase enzyme solution to 50 μl of reagent solution. The reactions were performed as described above. The retained firefly luciferase and Renilla luciferase luminescence as well as the selectivity values for each quencher were calculated (Table 3). The values listed are based on 0.06% quencher in the reagent solution.

firefly luciferase [2] = target: T2, firefly luciferase (Photinus pyralis, UniProt P08659); assay: Detergent screen with Tergitol NP-9, firefly luciferase (Example 3); type: biochemical; conditions: 0.06% quencher in reagent solution; 0.5% Tergitol NP-9
Experimental: as §1, §2, §3

Renilla luciferase [3] = target: T1, Renilla luciferase; assay: Quench of Renilla luciferase luminescence by competitive inhibitors in detergent-containing quenching reagent (Example 1); type: biochemical
Experimental: Renilla luciferase (1×10^−9 M in Renilla Luciferase Lysis Buffer (Promega))+0.1% Prionex (PentaPharma) was added to Renilla Luciferase Assay Buffer (Promega) containing 3 μM coelenterazine-h. The initial Renilla luciferase-mediated luminescence was measured for 10 seconds using a Turner 20/20 n (Turner BioSystems). A quenching reagent containing 50 mM HEPES pH 7.4, 16 mM MgSO4, 1 mM CDTA, 0.5% Tergitol NP-9, 0.015% dodecyltrimethylammonium bromide, 10 mM thiourea, 0.05% Mazu-DF-204 (PGP), and 1.5 mM ATP (Pharmacia) was added to the reactions to reduce the Renilla luciferase-mediated luciferase luminescence. […] After the addition of the inhibitors, a second Renilla luciferase-mediated luminescence reading was taken. Unless otherwise specified, materials were obtained from Sigma-Aldrich.
The quenching agents described herein are effective in the presence of detergents used for cell lysis as well as other quenching agents.

Renilla luciferase [4] = target: T1, Renilla luciferase; assay: Versions of firefly luciferase reagent, firefly/Renilla luciferase samples (Example 10); type: biochemical; conditions: firefly/Renilla sample
Experimental: (§4) Eight different versions of firefly luciferase reagent were made. The versions contained one of two luciferin substrates: luciferin or 5′ fluoroluciferin. The versions also differed in whether they contained Coenzyme A and/or DTT (a thiol). All versions of the reagent contained 250 mM HEPES pH 7.4, 16 mM MgSO4, 2 mM ATP and 2 mM luciferin or 5′fluoroluciferin. To create the various versions of the firefly luciferase reagent, 20 mM DTT, 2 mM Coenzyme A, 20 mM DTT and 2 mM Coenzyme A or neither DTT or Coenzyme A was added. In addition, sub-versions of the reagent were created which contained 0.3 mM of the indole (#3077) Renilla luciferase quencher, 0.04% (w:v) of the detergent (4-((dodecyldimethylammonium)methyl)benzoate) Renilla luciferase quencher, both quenchers or neither quencher. In all, a total of 32 versions of firefly luciferase reagent were created (Table 10).
(§5) To mimic the effect of measuring Renilla luciferase luminescence followed by the measurement of firefly luciferase luminescence in a single sample, side-by-side samples (each in triplicate) were used for each version of reagent. The first triplicate of samples comprised one of the versions of firefly luciferase reagent and a firefly luciferase solution (added 1:1) containing F12 medium (Invitrogen), 1 mg/ml BSA (ThermoFisher) and 14 ng/ml QuantiLum® luciferase (Promega). The second triplicate of samples comprised the same version of firefly luciferase reagent used in the first trio and a firefly/Renilla luciferase solution (added 1:1) containing F12 medium, 1 mg/ml BSA, 14 ng/ml QuantiLum® luciferase and 140 ng/ml Renilla luciferase. Firefly and Renilla luciferase luminescence was measured as previously described in both sets of samples at the same time. […] The firefly luciferase measurements were obtained from the samples only containing the firefly luciferase while the Renilla luciferase measurements were obtained from the samples containing both firefly and Renilla luciferases.

firefly luciferase [5] = target: T2, firefly luciferase; assay: Versions of firefly luciferase reagent, firefly luciferase only samples (Example 10); type: biochemical
Experimental: as §4, §5

firefly luciferase [6] = target: T2, firefly luciferase; assay: Non-detergent compound screen, firefly luciferase (Example 6); type: biochemical; conditions: 0.5% Tergitol NP-9, 0.03% BDDABr, read-out: Retained Firefly Luciferase Value (%)
Experimental: (§6) Each compound was diluted into 200 mM MOPS pH 6.7, 4 μM MgSO4, 1 mM CDTA, 0.5% Tergitol NP-9, 0.05% Mazu-DF-204, 0.03% BDDABr, 30 mM thiourea, 1 mM bis-(2-mercaptoethylsulfone) (BMS), 4 μM CoA, and 1 μM 5-fluoroluciferin. Just prior to the luciferase reaction, 0.1% Prionex® (Pentapharm) and 2.9 μM coelenterazine-h (Promega) were added to each solution.
(§7) The firefly luciferase and Renilla luciferase enzymes were diluted as described in Examples 3 and 5. The luciferase reactions were initiated by adding 50 μl of the firefly luciferase and Renilla luciferase enzyme solution to 50 μl of reagent solution. The reactions were performed as described above. The retained Renilla and firefly luciferase-mediated luminescence and selectivity values for each inhibitor tested are listed in Table 6.

Renilla luciferase [7] = target: T1, Renilla luciferase; assay: Non-detergent compound screen, Renilla luciferase (Example 6); type: biochemical
Experimental: as §6, §7

Renilla luciferase [8] = target: T1, Renilla luciferase; assay: Quench of Renilla luciferase luminescence in lysed CHO cells expressing Renilla luciferase (Example 7); type: cell-based; conditions: for Inhibition (Initial/Addition): 10 μM #3077 and/or 0.04% #1424, 0.5% Tergitol NP-9; for Renilla luciferase luminescence after inhibitor addition: 3 minutes after lysis solution with 0.5% Tergitol NP-9 and 10 μM #3077 and/or 0.04% #1424; for Initial Renilla luciferase luminescence: CHO cells, EnduRen, before inhibitor addition
Experimental: Renilla luciferase was expressed under the control of the CMV promoter in Chinese Hamster Ovary (CHO) cells. The cells were grown in DMEM+10% FBS (Invitrogen). The cells (20,000) were plated in 96-well plates and cultured in the presence of the EnduRen™ Live Cell Substrate (Promega) in order to generate continuous Renilla luciferase-mediated luminescence. After 12 hours of culturing, Renilla luciferase-mediated luminescence was measured. After measurement, the cells were lysed with an equal volume of a solution containing 0.5% Tergitol NP-9 and either 10 μM compound #3077 (non-detergent inhibitor), 0.04% 4-((dodecyldimethylammonium)methyl)benzoate (#1424) (detergent inhibitor), or a combination of the two. The cells were exposed for 3 minutes and Renilla luciferase-mediated luminescence was measured.

[9] = Quench Reagent + 10 μM inhibitor
[10] = Quench Reagent + 100 μM inhibitor
[11] = Luciferin, no thiol, 0.3 mM #3077 and/or 0.04% #1424

T2 sequence (P08659 whole entry): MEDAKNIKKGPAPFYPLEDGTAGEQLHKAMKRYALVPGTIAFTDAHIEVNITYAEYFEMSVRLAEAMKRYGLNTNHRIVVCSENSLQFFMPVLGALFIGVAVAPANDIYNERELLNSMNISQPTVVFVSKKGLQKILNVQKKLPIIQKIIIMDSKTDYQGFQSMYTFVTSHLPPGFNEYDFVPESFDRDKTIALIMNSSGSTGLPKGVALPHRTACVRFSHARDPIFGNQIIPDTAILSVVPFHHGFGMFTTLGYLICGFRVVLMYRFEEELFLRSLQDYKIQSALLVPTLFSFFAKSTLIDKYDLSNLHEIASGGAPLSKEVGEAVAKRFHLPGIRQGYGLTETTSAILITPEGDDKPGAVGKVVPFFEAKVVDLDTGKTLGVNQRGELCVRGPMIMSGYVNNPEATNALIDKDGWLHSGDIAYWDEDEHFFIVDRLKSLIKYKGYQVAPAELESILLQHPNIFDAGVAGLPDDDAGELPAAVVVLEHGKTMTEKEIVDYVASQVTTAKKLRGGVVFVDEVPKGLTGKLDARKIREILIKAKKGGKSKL

CCCCCCCCCCCC[N+](C)(C)Cc1ccc2c(c1)CCCC2.[Cl-] [Dimethyldodecyl(5,6,7,8-tetrahydro-2-naphthylmethyl)ammonium chloride]
Retained Renilla Luminescence (%) (Renilla luciferase [1]): 118.0% | Selectivity Value (Renilla luciferase [1]): 0.9 | Retained Firefly Luminescence (%) (firefly luciferase [2]): 112.0%

O=C(Cc1ccc(O)cc1)Nc1ncc(-c2ccc(O)cc2)nc1Cc1ccccc1 [coelenteramide]
Reduction in Renilla luciferase luminescence after 2nd measurement (Renilla luciferase [3]; [9]): 18-fold | Reduction in Renilla luciferase luminescence after 2nd measurement (Renilla luciferase [3]; [10]): 21-fold | Ki (Renilla luciferase [3]; in the presence of lysing detergent and quenching reagent): > 100 µM

CCCCCCCCCCCCOCC[N+](C)(C)Cc1ccccc1.[Cl-] [Benzyldimethyl(2-dodecyloxethyl)ammonium chloride]
Retained Renilla Luminescence (%) (Renilla luciferase [1]): 20.5% | Selectivity Value (Renilla luciferase [1]): 8.5 | Retained Firefly Luminescence (%) (firefly luciferase [2]): 174.0%

CCCC[N+](C)(C)CCc1c[nH]c2ccc(/C=C/C(=O)NCc3ccc(OC)cc3)cc12.[I-] [Compound 3077, (E)-N-(2-(5-(3-(4-methoxybenzylamino)-3-oxoprop-1-enyl)-1H-indol-3-yl)ethyl)-N,N-dimethylbutan-1-aminium iodide]
Renilla luminescence (Renilla luciferase [4]; 5′-fluoroluciferin, CoA): 2,360,350 | Renilla luminescence (Renilla luciferase [4]; 5′-fluoroluciferin, DTT + CoA): 2,653,610 | Renilla luminescence (Renilla luciferase [4]; 5′-fluoroluciferin, DTT): 514,808 | Renilla luminescence (Renilla luciferase [4]; 5′-fluoroluciferin, no thiol): 280,188 | Renilla luminescence (Renilla luciferase [4]; Luciferin, CoA): 1,572,983 | Renilla luminescence (Renilla luciferase [4]; Luciferin, DTT + CoA): 1,770,665 | Renilla luminescence (Renilla luciferase [4]; Luciferin, DTT): 260,392 | Renilla luminescence (Renilla luciferase [4]; Luciferin, no thiol): 136,759 | Firefly luminescence (firefly luciferase [5]; 5′-fluoroluciferin, CoA): 2,367,927 | Firefly luminescence (firefly luciferase [5]; 5′-fluoroluciferin, DTT): 499,900 | Firefly luminescence (firefly luciferase [5]; 5′-fluoroluciferin, DTT + CoA): 2,677,367 | Firefly luminescence (firefly luciferase [5]; 5′-fluoroluciferin, no thiol): 239,138 | Firefly luminescence (firefly luciferase [5]; Luciferin, CoA): 1,502,143 | Firefly luminescence (firefly luciferase [5]; Luciferin, DTT): 252,225 | Firefly luminescence (firefly luciferase [5]; Luciferin, DTT + CoA): 1,821,797 | Firefly luminescence (firefly luciferase [5]; [11]): 115,749 | remaining activity at 10 µM (firefly luciferase [6]; inhibitor 10 μM): 100% | remaining activity at 100 µM (firefly luciferase [6]; inhibitor 100 μM): 98% | remaining activity at 1000 µM (firefly luciferase [6]; inhibitor 1000 μM): 98% | Selectivity Value (Renilla luciferase [7]; inhibitor 10 μM): 20 | remaining activity at 10 µM (Renilla luciferase [7]; inhibitor 10 μM, 0.5% Tergitol NP-9, 0.03% BDDABr, read-out: Retained Renilla Luciferase Value (%)): 5% | Selectivity Value (Renilla luciferase [7]; inhibitor 100 μM): 98 | remaining activity at 100 µM (Renilla luciferase [7]; inhibitor 100 μM, 0.5% Tergitol NP-9, 0.03% BDDABr, read-out: Retained Renilla Luciferase Value (%)): 1% | Selectivity Value (Renilla luciferase [7]; inhibitor 1000 μM): 980 | remaining activity at 1000 µM (Renilla luciferase [7]; inhibitor 1000 μM, 0.5% Tergitol NP-9, 0.03% BDDABr, read-out: Retained Renilla Luciferase Value (%)): 0.1% | Inhibition (Initial/Addition) (Renilla luciferase [8]): 608 | effectiveness at quenching Renilla luciferase-mediated luminescence relative to #1424 alone (Renilla luciferase [8]; 10 μM #3077 vs 0.04% #1424): about 12 fold | Renilla luciferase luminescence after inhibitor addition (Renilla luciferase [8]): 1402 | Initial Renilla luciferase luminescence (Renilla luciferase [8]): 852596

CCCCCCCCCCCC[N+](C)(C)Cc1ccccc1-c1ccccc1.[Br-] [N-(biphenyl-2-ylmethyl)-NN-dimethyldodecyan-1-ammonium bromide]
Retained Renilla Luminescence (%) (Renilla luciferase [1]): 0.8% | Selectivity Value (Renilla luciferase [1]): 221.3 | Retained Firefly Luminescence (%) (firefly luciferase [2]): 177.0%

CCCCCCCCCCCC[N+](C)(C)Cc1ccc(C(=O)[O-])cc1 [Compound 1424, 4-((Dodecyldimethylammonium)methyl)benzoate]
Renilla luminescence (Renilla luciferase [4]; 5′-fluoroluciferin, CoA): 2,891,880 | Renilla luminescence (Renilla luciferase [4]; 5′-fluoroluciferin, DTT + CoA): 2,833,435 | Renilla luminescence (Renilla luciferase [4]; 5′-fluoroluciferin, DTT): 1,142,573 | Renilla luminescence (Renilla luciferase [4]; 5′-fluoroluciferin, no thiol): 1,138,027 | Renilla luminescence (Renilla luciferase [4]; Luciferin, CoA): 2,240,063 | Renilla luminescence (Renilla luciferase [4]; Luciferin, DTT + CoA): 2,265,505 | Renilla luminescence (Renilla luciferase [4]; Luciferin, DTT): 699,059 | Renilla luminescence (Renilla luciferase [4]; Luciferin, no thiol): 660,916 | Retained Renilla Luminescence (%) (Renilla luciferase [1]): 20.0% | Selectivity Value (Renilla luciferase [1]): 6.4 | Firefly luminescence (firefly luciferase [5]; 5′-fluoroluciferin, CoA): 2,095,790 | Firefly luminescence (firefly luciferase [5]; 5′-fluoroluciferin, DTT): 512,625 | Firefly luminescence (firefly luciferase [5]; 5′-fluoroluciferin, DTT + CoA): 2,376,253 | Firefly luminescence (firefly luciferase [5]; 5′-fluoroluciferin, no thiol): 268,289 | Firefly luminescence (firefly luciferase [5]; Luciferin, CoA): 1,621,883 | Firefly luminescence (firefly luciferase [5]; Luciferin, DTT): 291,173 | Firefly luminescence (firefly luciferase [5]; Luciferin, DTT + CoA): 1,881,453 | Firefly luminescence (firefly luciferase [5]; [11]): 144,239 | Retained Firefly Luminescence (%) (firefly luciferase [2]): 127.0% | Inhibition (Initial/Addition) (Renilla luciferase [8]): 52 | Renilla luciferase luminescence after inhibitor addition (Renilla luciferase [8]): 19963 | Initial Renilla luciferase luminescence (Renilla luciferase [8]): 1037560

CCCCCCCCCCCC[N+](C)(C)C1c2ccccc2-c2ccccc21.[Br-] [N-dodecyl-N,N-dimethyl-9H-fluoren-9-aminium bromide]
Retained Renilla Luminescence (%) (Renilla luciferase [1]): 1% | Selectivity Value (Renilla luciferase [1]): 37 | Retained Firefly Luminescence (%) (firefly luciferase [2]): 37%

N-benzyl-N,N-dimethylloctan-1-aminium bromide
Retained Renilla Luminescence (%) (Renilla luciferase [1]): 13% | Selectivity Value (Renilla luciferase [1]): 10.3 | Retained Firefly Luminescence (%) (firefly luciferase [2]): 134%

methylether coelenterazine-hh
Reduction in Renilla luciferase luminescence after 2nd measurement (Renilla luciferase [3]; [9]): 21-fold | Reduction in Renilla luciferase luminescence after 2nd measurement (Renilla luciferase [3]; [10]): 34-fold

methylether coelenterazine-h
Reduction in Renilla luciferase luminescence after 2nd measurement (Renilla luciferase [3]; [9]): 15-fold | Reduction in Renilla luciferase luminescence after 2nd measurement (Renilla luciferase [3]; [10]): 30-fold
